The values below come from ChEMBL document CHEMBL5104116, “Strategies for targeting the P2Y12 receptor in the central nervous system” (Bioorg Med Chem Lett, 2022).

Assay [1] deals with T1, P2Y purinoceptor 12 (Homo sapiens, UniProt Q9H244). Nature of the assay: Inhibition of P2Y12 (unknown origin).
Assay [2] concerns the target T1, P2Y purinoceptor 12. The assay is described as follows: Displacement of [3H]-2MesADP from recombinant human P2Y12 transfected in HEK cell membrane assessed as inhibition constant. It counts as cell membranes. For orientation: Loss of bound radioactivity is the signal in a displacement assay; it reports binding, not function.
For assay [3], the target named is T1, P2Y purinoceptor 12. Nature of the assay: Displacement of [3H]-2MesADP from human P2Y12 in HEK cell membrane assessed as inhibition constant incubated for 1 hr by scintillation counter method. Type of assay: cell membranes.
In assay [4] the target is T1, P2Y purinoceptor 12. Nature of the assay: Displacement of [3H]PSB-0413 from P2Y12 in human platelets assessed as dissociation constant. It counts as cell-based, Platelet.
Assay [5] concerns the target T1, P2Y purinoceptor 12. The assay is described as follows: Displacement of [33P]-2MeS-ADP from recombinant human P2Y12 transfected in HEK cell membrane assessed as inhibition constant incubated for 1 hr by competitive binding assay. It counts as cell membranes.
In assay [6] the target is T1, P2Y purinoceptor 12. The assay is described as follows: Binding affinity to P2Y12 (unknown origin) assessed as inhibition constant.

T1 sequence (Q9H244 whole entry): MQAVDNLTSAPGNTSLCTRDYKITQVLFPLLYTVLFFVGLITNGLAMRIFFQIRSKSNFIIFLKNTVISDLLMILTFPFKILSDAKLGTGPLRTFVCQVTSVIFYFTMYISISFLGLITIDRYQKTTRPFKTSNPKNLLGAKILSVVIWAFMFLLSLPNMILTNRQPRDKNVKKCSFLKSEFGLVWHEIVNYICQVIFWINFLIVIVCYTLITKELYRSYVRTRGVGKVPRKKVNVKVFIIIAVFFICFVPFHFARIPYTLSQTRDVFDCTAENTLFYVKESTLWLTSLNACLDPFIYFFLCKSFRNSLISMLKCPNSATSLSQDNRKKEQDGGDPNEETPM

As a reminder, the IC50 is the concentration needed to halve the response being measured. Take `CC(=O)Oc1cc2c(s1)CCN(C(C(=O)C1CC1)c1ccccc1F)C2` (stereo not drawn): the half-inhibitory concentration (IC50) against P2Y purinoceptor 12 [1] was determined as 1800 nM.
By Ki is commonly meant the dissociation constant of the complex between target and ligand, obtained from inhibition or displacement. In the case of `CSc1nc(N)c2ncn([C@@H]3O[C@H](COP(=O)(O)OP(=O)(O)O)[C@@H](O)[C@H]3O)c2n1`, at P2Y purinoceptor 12 [2], the Ki stood at 32.1 nM.
Turning to `CCCc1cc2c(N3CCn4c(nnc4C(F)(F)F)C3)nc(OCCF)nc2s1`, the inhibitory constant (Ki) on P2Y purinoceptor 12 [3] came out at 0.3 nM.
A word on the Kd: it is the equilibrium constant for the complex coming apart. In the case of `[3H]C([3H])C([3H])([3H])CSc1nc(N)c2ncn([C@@H]3O[C@H](COP(=O)(O)OP(=O)(O)O)[C@@H](O)[C@H]3O)c2n1`, the Kd at P2Y purinoceptor 12 [4] was determined as 6.5 nM.
With `NCc1cc2c(N3CCN(C(=O)c4ccc(-c5ccccc5)cc4)CC3)nc(N3CCNC(=O)C3)nc2s1`, at P2Y purinoceptor 12 [5], the inhibition constant (Ki) came out at 9 nM.
Regarding `CCCCCOC(=O)N1CCN(C(=O)[C@H](CCC(=O)O)NC(=O)c2cc(N3CCC(COC)CC3)cc(-c3ccccc3)n2)CC1`, at P2Y purinoceptor 12 [6], the inhibition constant Ki is 3.5 nM.
In the case of `COC(=O)[C@H](c1ccccc1Cl)N1CCc2sccc2C1` [CLOPIDOGREL], the IC50 on P2Y purinoceptor 12 [1] worked out at 2400 nM.
For `CCCSc1nc(N[C@@H]2C[C@H]2c2ccc(F)c(F)c2)c2nnn([C@@H]3C[C@H](OCCO)[C@@H](O)[C@H]3O)c2n1` [TICAGRELOR], the IC50 at P2Y purinoceptor 12 [1] amounted to 10 nM.
